In PubChem BioAssay (NCI):
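In this assay, cells in 96-well plates receive the compound at five concentrations for 48 hours. Endpoints are linearly interpolated between the surrounding concentrations. GI50 = concentration required for 50% inhibition of growth. TGI: total growth inhibition.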

What was measured:
Assay in all cases: NCI anticancer screen, dose series, 48 h
[1] = test system: A498 renal
[2] = test system: OVCAR-3 ovarian
[3] = test system: SK-MEL-2 melanoma
[4] = test system: TK-10 renal
[5] = test system: NCI-H23 lung
[6] = test system: K-562 leukemia
[7] = test system: UO-31 renal
[8] = test system: MDA-MB-435
[9] = test system: DU-145 prostate
[10] = test system: MDA-MB-231 breast

Row | SMILES | TGI [1] [µM] | TGI [2] [µM] | TGI [3] [µM] | TGI [4] [µM] | TGI [5] [µM] | TGI [6] [µM] | TGI [7] [µM] | GI50 [7] [µM] | GI50 [1] [µM] | GI50 [8] [µM] | TGI [8] [µM] | GI50 [2] [µM] | GI50 [9] [µM] | TGI [9] [µM] | GI50 [4] [µM] | GI50 [10] [µM] | TGI [10] [µM] | GI50 [6] [µM] | GI50 [3] [µM] | GI50 [5] [µM]
1 | COC(=O)[C@@]12C=CC(=O)[C@H]3C[C@@H](C(C(C)C)C1)[C@]32OC (stereo not given in full) | > 100 | > 100 | > 100 | > 100 | > 100 | > 100 |  |  |  |  |  |  |  |  |  |  |  |  |  | 
2 | COc1ccc(C2C3=C(COC3=O)Oc3cc4c(cc32)OCO4)cc1 (stereo not given) |  | 41.3 | > 100 | > 100 | > 100 | > 100 | 74 |  |  |  |  |  |  |  |  |  |  |  |  | 
3 | O=C(C=Nc1ccccc1C(=O)[O-])c1cccs1.O=C(C=Nc1ccccc1C(=O)[O-])c1cccs1.[Zn+2] | > 100 | 29.1 | 52.1 | > 100 | > 100 | 88 | > 100 |  |  |  |  |  |  |  |  |  |  |  |  | 
4 | COC1=C(OC)[C@]2(OC)c3c(O)c(OC)c4c(c3O[C@@]23O[C@@H](c2ccccc2)CC=C3C1=O)[C@@H](O)C[C@H](c1ccccc1)O4 | 2.35 | 0.517 |  | 0.718 |  | 0.742 | 2.6 | 1.33 | 0.348 | 0.27 | 0.87 | 0.204 | 2.23 | 4.56 | 0.251 | 0.234 | 0.911 | 0.0972 |  | 
5 | FC(F)(F)c1cccc(C2SCc3nc4ccccc4n32)c1 (stereo not given) |  | > 100 | > 100 | > 100 | > 100 | > 100 | > 100 |  |  |  |  |  |  |  |  |  |  |  |  | 
6 | COC1CC(OC)C(O)C(CO)O1 (stereo not given) |  | > 100 | > 100 | > 100 | > 100 | > 100 | > 100 |  |  |  |  |  |  |  |  |  |  |  |  | 
7 | C/C(=C\c1ccn(-c2ccc(N)cc2F)n1)[C@@H]1C[C@@H]2O[C@]2(C)CCC[C@H](C)[C@H](O)[C@@H](C)C(=O)C(C)(C)[C@@H](O)CC(=O)O1 |  | 0.159 | > 50 | > 50 | > 50 | > 50 | > 50 | 0.176 |  |  |  | 0.0166 | 0.024 | 0.285 | 0.0939 | 0.132 | > 50 | 0.0197 | 0.0518 | 0.033
8 | CC(=O)[O][Bi]([c]1ccccc1)[c]1ccccc1 | 32.4 | 34.3 |  | 6.38 | 27.8 | 14.5 | 7.01 | 2.08 | 18.2 | 7.26 | 22.2 | 11.8 | 21.3 | 50.2 | 1.85 | 14.4 | 28.4 | 2.75 |  | 11.5
9 | CCCCCCCCCCCCCCCCCC[N+](C)(C)Cc1ccc(C[N+](C)(C)CCCCCCCCCCCCCCCCCC)cc1 | 91.7 | 40.6 | > 100 | 28.6 | 18 | > 100 | 56.3 |  |  |  |  |  |  |  |  |  |  |  |  | 
10 | Cc1ccc(NC(=O)CC2C(=O)Nc3ccccc3S2=O)c(C)c1 (stereo not given) | 61.3 | 23.2 | 35.9 | 56.5 | 32.8 | > 87.1 | 45.3 |  |  |  |  |  |  |  |  |  |  |  |  | 
